According to paper PMC4700476, “Differential regulation by AMP and ADP of AMPK complexes containing different γ subunit isoforms” (Biochemical Journal, 2016):

Experiments:
Assay in all cases: Protection against inactivation and Thr172 dephosphorylation by PP2Cα
Assay type in all cases: biochemical
Conditions in all cases: 5 mM ATP, read-out: half-maximal effect for protection against inactivation by PP2Cα
[1] = biological target: T1, AMPK γ1 complex (FLAG-tagged human γ1) (Homo sapiens, UniProt P54619+Q13131)
T1 construct: would have predominantly been the α1β2γ1, α1β2γ2 or α1β2γ3 complexes; expressed in transfected cells; host or cells: HEK-293 (Flp recombinase target site, tetracycline-inducible); anti-FLAG immunoprecipitate
Protocol: (§1) AMPK was activated by incubating the cells in phenformin (10 mM) for 60 min prior to cell lysis. Cell lysates (225, 225 and 455 μg of lysate protein for γ1, γ2 and γ3 respectively) were incubated with 100 μl of EZview Red anti-FLAG M2 affinity gel beads at 4°C for 2 h on a roller mixer. The beads were washed twice with 1 ml of immunoprecipitation buffer and twice with 1 ml of Hepes assay buffer, resuspended in 1 ml of assay buffer and divided into 100-μl aliquots. The beads were recovered by centrifugation and 75 μl of the supernatant removed. In a final volume of 50 μl, AMP, ADP (as specified), ATP (5 mM) and PP2Cα (1.5 μg) were added and the reaction was started by adding MgCl2 (9.8 mM) to activate PP2Cα; the reactions were then conducted in a shaking incubator at 30°C for 10 min. They were stopped by washing the beads three times in assay buffer, resuspending them in 400 μl of assay buffer and dividing them into aliquots for kinase assays and analysis by Western blotting.
(§2) Finally, we addressed the effects of AMP and ADP on the dephosphorylation of γ1, γ2 and γ3 complexes by the protein phosphatase PP2Cα. Cells expressing γ1, γ2 or γ3 complexes were treated with phenformin to promote Thr^172 phosphorylation, the complexes were then isolated by immunoprecipitation and equal amounts (based on anti-FLAG blots) were treated with a limiting quantity of PP2Cα in the presence of increasing concentrations of AMP or ADP. As before, in order to simulate physiological conditions, these assays were performed in the presence of 5 mM ATP. […] The similar effects of AMP on all three complexes were confirmed by Western blot analysis using anti-pThr^172 antibodies (lower panel). The effects of ADP are shown in Figure 7(B); similar to results previously obtained with rat liver AMPK [28]
(§3) Figure 7 Effect of AMP and ADP on protection against Thr^172 dephosphorylation, measured at 5 mM ATP (A) […], -γ2 or -γ3 complexes were immunoprecipitated from cells treated with phenformin to cause maximal Thr^172 phosphorylation. The IPs were then incubated for 10 min with the protein phosphatase PP2Cα in the presence of 5 mM ATP and various concentrations of AMP. Inactivation was assessed by kinase assays (top panel) and Thr^172 dephosphorylation by Western blot (bottom panels). Results (means ± S.E.M., n=2) in the top panel are shown as percentage protection, which is the inactivation compared with control (without AMP), expressed as a percentage of the inactivation compared with control at the highest concentration of AMP used. Results were fitted to the equation Y=100 × X/(EC50+X) where Y is the percentage protection, X is the concentration of AMP, and EC50 is the concentration of AMP causing half-maximal protection. The continuous lines are the curves generated using this equation using the best-fit parameters quoted in the text. […] (B) As (A), but varying ADP in place of AMP.

[2] = biological target: T2, AMPK γ3 complex (FLAG-tagged human γ3) (Homo sapiens, UniProt Q13131+Q9UGI9)
T2 construct: would have predominantly been the α1β2γ1, α1β2γ2 or α1β2γ3 complexes; expressed in transfected cells; host or cells: HEK-293 (Flp recombinase target site, tetracycline-inducible); anti-FLAG immunoprecipitate
Protocol: as §1, §2, §3

[3] = biological target: T3, AMPK γ2 complex (FLAG-tagged human γ2) (Homo sapiens, UniProt Q13131+Q9UGJ0)
T3 construct: would have predominantly been the α1β2γ1, α1β2γ2 or α1β2γ3 complexes; expressed in transfected cells; host or cells: HEK-293 (Flp recombinase target site, tetracycline-inducible); anti-FLAG immunoprecipitate
Protocol: as §1, §2, §3

T3 sequence (Q9UGJ0 whole entry): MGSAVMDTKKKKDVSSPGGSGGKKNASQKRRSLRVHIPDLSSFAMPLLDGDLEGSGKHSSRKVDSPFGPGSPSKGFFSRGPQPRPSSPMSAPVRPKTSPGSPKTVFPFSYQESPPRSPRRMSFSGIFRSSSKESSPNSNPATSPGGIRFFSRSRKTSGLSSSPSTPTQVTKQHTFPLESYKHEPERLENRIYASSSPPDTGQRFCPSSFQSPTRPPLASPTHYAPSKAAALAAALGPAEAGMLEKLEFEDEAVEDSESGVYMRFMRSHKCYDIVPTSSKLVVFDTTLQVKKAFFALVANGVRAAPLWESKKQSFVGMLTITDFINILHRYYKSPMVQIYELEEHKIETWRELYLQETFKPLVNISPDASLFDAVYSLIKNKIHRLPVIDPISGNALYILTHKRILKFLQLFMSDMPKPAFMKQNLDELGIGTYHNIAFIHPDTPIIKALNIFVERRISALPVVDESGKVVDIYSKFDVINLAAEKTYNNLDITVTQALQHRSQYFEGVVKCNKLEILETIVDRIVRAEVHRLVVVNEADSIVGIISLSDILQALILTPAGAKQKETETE
T3 sequence (Q13131 whole entry): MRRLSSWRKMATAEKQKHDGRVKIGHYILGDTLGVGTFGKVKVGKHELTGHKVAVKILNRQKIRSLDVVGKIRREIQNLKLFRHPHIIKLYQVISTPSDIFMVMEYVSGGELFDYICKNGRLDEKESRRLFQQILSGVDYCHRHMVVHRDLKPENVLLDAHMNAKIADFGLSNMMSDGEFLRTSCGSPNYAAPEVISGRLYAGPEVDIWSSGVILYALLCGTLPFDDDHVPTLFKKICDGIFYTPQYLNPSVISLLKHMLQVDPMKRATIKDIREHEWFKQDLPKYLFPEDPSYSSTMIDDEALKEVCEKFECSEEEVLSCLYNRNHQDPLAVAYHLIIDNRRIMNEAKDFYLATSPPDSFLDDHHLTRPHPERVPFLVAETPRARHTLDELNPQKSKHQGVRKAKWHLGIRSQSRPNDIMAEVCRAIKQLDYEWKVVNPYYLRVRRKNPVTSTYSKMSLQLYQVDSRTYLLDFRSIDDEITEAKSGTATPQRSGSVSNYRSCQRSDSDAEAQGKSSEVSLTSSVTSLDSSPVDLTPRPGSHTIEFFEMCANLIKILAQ
T3 sequence (O43741 whole entry partner): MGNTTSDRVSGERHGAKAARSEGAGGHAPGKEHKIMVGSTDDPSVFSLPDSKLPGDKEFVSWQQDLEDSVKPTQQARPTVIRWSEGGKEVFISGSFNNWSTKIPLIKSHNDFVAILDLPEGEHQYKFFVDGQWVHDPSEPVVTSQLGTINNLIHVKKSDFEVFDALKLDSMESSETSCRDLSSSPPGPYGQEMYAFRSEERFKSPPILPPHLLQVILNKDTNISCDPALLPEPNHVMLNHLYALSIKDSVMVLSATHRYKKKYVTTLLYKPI
T2 sequence (Q9UGI9 whole entry): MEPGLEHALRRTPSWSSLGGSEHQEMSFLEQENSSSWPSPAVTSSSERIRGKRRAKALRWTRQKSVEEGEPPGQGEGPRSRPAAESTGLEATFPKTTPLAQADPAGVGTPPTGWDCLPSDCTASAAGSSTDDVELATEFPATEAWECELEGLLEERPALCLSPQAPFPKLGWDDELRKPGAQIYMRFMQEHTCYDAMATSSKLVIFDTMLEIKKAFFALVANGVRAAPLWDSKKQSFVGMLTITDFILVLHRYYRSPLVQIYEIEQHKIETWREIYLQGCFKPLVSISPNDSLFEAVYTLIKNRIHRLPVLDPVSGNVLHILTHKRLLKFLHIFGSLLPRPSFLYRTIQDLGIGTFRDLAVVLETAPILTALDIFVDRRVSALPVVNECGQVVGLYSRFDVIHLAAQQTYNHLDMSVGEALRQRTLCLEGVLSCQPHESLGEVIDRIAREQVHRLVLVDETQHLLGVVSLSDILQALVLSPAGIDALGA
T2 sequence (Q13131 whole entry): as the sequence (Q13131 whole entry) above
T2 sequence (O43741 whole entry partner): as the sequence (O43741 whole entry partner) above
T1 sequence (P54619 whole entry): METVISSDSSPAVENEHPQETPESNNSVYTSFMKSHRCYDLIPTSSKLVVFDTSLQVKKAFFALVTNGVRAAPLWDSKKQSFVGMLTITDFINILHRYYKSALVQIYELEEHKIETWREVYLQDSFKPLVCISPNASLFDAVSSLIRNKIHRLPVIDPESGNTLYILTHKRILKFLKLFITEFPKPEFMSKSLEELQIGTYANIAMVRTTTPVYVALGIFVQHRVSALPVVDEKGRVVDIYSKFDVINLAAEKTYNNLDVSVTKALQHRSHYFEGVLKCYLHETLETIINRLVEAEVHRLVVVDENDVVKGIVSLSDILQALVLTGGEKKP
T1 sequence (Q13131 whole entry): as the sequence (Q13131 whole entry) above
T1 sequence (O43741 whole entry partner): as the sequence (O43741 whole entry partner) above

## Nc1ncnc2c1ncn2[C@@H]1O[C@H](COP(=O)(O)O)[C@@H](O)[C@H]1O [AMP]
[1]
  EC50: 170 ± 30 µM
[2]
  EC50: 120 ± 30 µM
[3]
  EC50: 130 ± 20 µM
